Data: article PMC10584170, “Machine learning-based phenotypic imaging to characterise the targetable biology of Plasmodium falciparum male gametocytes for the development of transmission-blocking antimalarials” (PLOS Pathogens, 2023)
pIC50: −log10 of the molar value. Like-named read-outs stand apart in the source and are kept apart here.

Legend:
[1] = test system: P. falciparum male gametocytes; experiment: P. falciparum Dual Gamete Formation Assay (PfDGFA), male readout (exflagellation); format: cell-based, Plasmodium falciparum NF54; conditions: for Selectivity Ratio M: HepG2 Tox50 versus male IC50; for pIC50: PfDGFA, 24 h incubation with gametocytes before induction, exflagellation readout, read-out: Male IC50; for HitlevelM: number of replicates with >50% inhibition in the male readout
Method in brief: (§1)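 First, day-14 P. falciparum NF54 gametocytes receive compound for 24 h at 37°C in 1% O2/3% CO2. Next, ookinete medium with Cy3 anti-Pfs25 triggers gametogenesis at 28°C and male exflagellation is imaged. Finally, after 24 h in the dark, Cy3-labelled females are imaged.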

[2] = test system: P. falciparum female gametocytes; experiment: P. falciparum Dual Gamete Formation Assay (PfDGFA), female readout (Pfs25-positive female gametes); format: cell-based, Plasmodium falciparum NF54; conditions: for Selectivity ratio F: HepG2 Tox50 versus female IC50; for pIC50: PfDGFA, 24 h incubation with gametocytes before induction, female gamete readout, read-out: Female IC50; for HitlevelF: number of replicates with >50% inhibition in the female readout
Method in brief: as §1

HepG2 cells = experiment: HepG2 cytotoxicity counter-screen; conditions: cytotoxic activity against HepG2 cells
[3] = 2µM, 24h preincubation with gametocytes, average of replicates
[4] = 2µM, 24h preincubation with gametocytes, replicate R1
[5] = 2µM, 24h preincubation with gametocytes, replicate R3
[6] = 2µM, 24h preincubation with gametocytes, replicate R4
[7] = PfDGFA at 2µM, 24h preincubation with gametocytes, average of replicates
[8] = PfDGFA at 2µM, 24h preincubation with gametocytes, replicate R1
[9] = PfDGFA at 2µM, 24h preincubation with gametocytes, replicate R3
[10] = PfDGFA at 2µM, 24h preincubation with gametocytes, replicate R4
[11] = Plasmodium falciparum, PfDGFA at 2µM, 24h preincubation with gametocytes, average of replicates, read-out: Average inhibition male (%)
[12] = Plasmodium falciparum, PfDGFA at 2µM, 24h preincubation with gametocytes, replicate R1, read-out: % inhibition male (individual replicates) R1
[13] = Plasmodium falciparum, PfDGFA at 2µM, 24h preincubation with gametocytes, replicate R2, read-out: % inhibition male (individual replicates) R2
[14] = Plasmodium falciparum, PfDGFA at 2µM, 24h preincubation with gametocytes, replicate R3, read-out: % inhibition male (individual replicates) R3
[15] = Plasmodium falciparum, PfDGFA at 2µM, 24h preincubation with gametocytes, replicate R4, read-out: % inhibition male (individual replicates) R4
[16] = Plasmodium falciparum, PfDGFA at 2µM, 24h preincubation with gametocytes, average of replicates, read-out: Average inhibition female (%)
[17] = Plasmodium falciparum, PfDGFA at 2µM, 24h preincubation with gametocytes, replicate R1, read-out: % inhibition female (individual replicates) R1
[18] = Plasmodium falciparum, PfDGFA at 2µM, 24h preincubation with gametocytes, replicate R2, read-out: % inhibition female (individual replicates) R2
[19] = Plasmodium falciparum, PfDGFA at 2µM, 24h preincubation with gametocytes, replicate R3, read-out: % inhibition female (individual replicates) R3
[20] = Plasmodium falciparum, PfDGFA at 2µM, 24h preincubation with gametocytes, replicate R4, read-out: % inhibition female (individual replicates) R4
[21] = Plasmodium falciparum, 2µM, 24h preincubation with gametocytes, average of replicates, read-out: Average inhibition male (%)
[22] = Plasmodium falciparum, 2µM, 24h preincubation with gametocytes, replicate R1, read-out: % inhibition male (individual replicates) R1
[23] = Plasmodium falciparum, 2µM, 24h preincubation with gametocytes, replicate R2, read-out: % inhibition male (individual replicates) R2
[24] = Plasmodium falciparum, 2µM, 24h preincubation with gametocytes, replicate R4, read-out: % inhibition male (individual replicates) R4
[25] = Plasmodium falciparum, 2µM, 24h preincubation with gametocytes, average of replicates, read-out: Average inhibition female (%)
[26] = Plasmodium falciparum, 2µM, 24h preincubation with gametocytes, replicate R1, read-out: % inhibition female (individual replicates) R1
[27] = Plasmodium falciparum, 2µM, 24h preincubation with gametocytes, replicate R2, read-out: % inhibition female (individual replicates) R2
[28] = Plasmodium falciparum, 2µM, 24h preincubation with gametocytes, replicate R3, read-out: % inhibition female (individual replicates) R3
[29] = Plasmodium falciparum, 2µM, 24h preincubation with gametocytes, replicate R4, read-out: % inhibition female (individual replicates) R4

Row | pIC50 [1] | pIC50 [2] | pIC50 ([1]; Plasmodium falciparum) | pIC50 ([2]; Plasmodium falciparum) | Structure (SMILES) | Average inhibition male (%) [1, 3] [%] | % inhibition male (individual replicates) R1 [1, 4] [%] | % inhibition male (individual replicates) R3 [1, 5] [%] | % inhibition male (individual replicates) R4 [1, 6] [%] | Selectivity Ratio M [1] | Average inhibition female (%) [2, 3] [%] | % inhibition female (individual replicates) R1 [2, 4] [%] | % inhibition female (individual replicates) R3 [2, 5] [%] | % inhibition female (individual replicates) R4 [2, 6] [%] | Selectivity ratio F [2] | Tox50 (HepG2 cells) [µM] | HitlevelM ([1]; 2µM) | HitlevelF ([2]; 2µM) | further results
1 | 5.82 | 5.43 | – | – | CN(CCCCN)Cc1ccc(-c2ccc(Cl)cc2)cc1 [TCMDC-140123] | – | – | – | – | 4.36 | – | – | – | – | 1.81 | 6.69 | 4 | 0 | Average inhibition male (%) [1, 7]: 72.2%; % inhibition male (individual replicates) R1 [1, 8]: 73.4%; % inhibition male (individual replicates) R3 [1, 9]: 55.2%; % inhibition male (individual replicates) R4 [1, 10]: 83.6%; Average inhibition female (%) [2, 7]: 20.6%; % inhibition female (individual replicates) R1 [2, 8]: 26.7%; % inhibition female (individual replicates) R3 [2, 9]: 14.8%; % inhibition female (individual replicates) R4 [2, 10]: 10.1%
2 | – | – | 5.75 | 5.79 | COc1cc(-c2nc(C(C)(C)CN)[nH]c2-c2ccncc2)ccc1Br.Cl [TCMDC-140674] | – | – | – | – | 24.67 | – | – | – | – | 27.17 | 43.66 | 3 | 2 | inhibition at 2 µM [1, 11]: 80.4%; inhibition at 2 µM [1, 12]: 38.8%; inhibition at 2 µM [1, 13]: 100%; inhibition at 2 µM [1, 14]: 83.7%; inhibition at 2 µM [1, 15]: 98.9%; inhibition at 2 µM [2, 16]: 51.9%; inhibition at 2 µM [2, 17]: 32.2%; inhibition at 2 µM [2, 18]: 85.8%; inhibition at 2 µM [2, 19]: 16.6%; inhibition at 2 µM [2, 20]: 72.9%
3 | 6.12 | 5.66 | – | – | N=C(N)Nc1nc(-c2ccc(NCc3ccc(CNc4cccc(-c5csc(NC(=N)N)n5)c4)cc3)cc2)cs1 [TCMDC-140699] | 99.5 | 99.4 | 98.0 | 98.9 | 7.68 | 56.1 | 34.4 | 32.5 | 82.5 | 2.7 | 5.85 | – | – | –
4 | – | – | 6.07 | 5.15 | CCN(CC)CCN(Cc1ccc(-c2ccc(C(F)(F)F)cc2)cc1)C(=O)Cn1cc(Cc2cnn(C)c2)c(=O)nc1/C=C/c1ccc(F)cc1.O=C(O)C(O)C(O)C(=O)O [TCMDC-140741] | – | – | – | – | 19.3 | – | – | – | – | 2.29 | 16.37 | – | – | inhibition at 2 µM [1, 21]: 90.1%; inhibition at 2 µM [1, 22]: 92.2%; inhibition at 2 µM [1, 23]: 91.9%; inhibition at 2 µM ([1]; Plasmodium falciparum, 2µM, 24h preincubation with gametocytes, replicate R3, read-out: % inhibition male (individual replicates) R3): 76%; inhibition at 2 µM [1, 24]: 100%; inhibition at 2 µM [2, 25]: 44.8%; inhibition at 2 µM [2, 26]: 41.2%; inhibition at 2 µM [2, 27]: 41.2%; inhibition at 2 µM [2, 28]: 34.9%; inhibition at 2 µM [2, 29]: 61.9%
5 | 5.92 | 5.27 | – | – | CC(C)(C)c1ccc(CNC(=O)c2ccc(CNC3CCC(N)CC3)s2)cc1 (centres unmarked) [TCMDC-140777] | – | – | – | – | 7.72 | – | – | – | – | 1.74 | 9.32 | 4 | 1 | Average inhibition male (%) [1, 7]: 76.0%; % inhibition male (individual replicates) R1 [1, 8]: 74.4%; % inhibition male (individual replicates) R3 [1, 9]: 56.4%; % inhibition male (individual replicates) R4 [1, 10]: 93.6%; Average inhibition female (%) [2, 7]: 32.6%; % inhibition female (individual replicates) R1 [2, 8]: 23.5%; % inhibition female (individual replicates) R3 [2, 9]: 26.9%; % inhibition female (individual replicates) R4 [2, 10]: 56.3%
6 | – | – | 5.71 | < 5.00 | CCN(CC)CCOc1ccc(Nc2ncc3cc(-c4c(Cl)cccc4Cl)c(=O)n(C)c3n2)cc1 [TCMDC-140940] | – | – | – | – | 1.38 | – | – | – | – | 0.27 | 2.66 | 4 | 0 | inhibition at 2 µM [1, 11]: 72.1%; inhibition at 2 µM [1, 12]: 72.9%; inhibition at 2 µM [1, 13]: 64.9%; inhibition at 2 µM [1, 14]: 74%; inhibition at 2 µM [1, 15]: 76.8%; inhibition at 2 µM [2, 16]: -0.6%; inhibition at 2 µM [2, 17]: -7.5%; inhibition at 2 µM [2, 18]: 1.2%; inhibition at 2 µM [2, 19]: -12%; inhibition at 2 µM [2, 20]: 15.8%
7 | – | – | 6.20 | 5.39 | CCN(CC)CCN(Cc1ccc(-c2ccc(C(F)(F)F)cc2)cc1)C(=O)Cn1cc(Cc2cnn(C)c2)c(=O)nc1/C=C/c1cccc(F)c1F.O=C(O)C(O)C(O)C(=O)O [TCMDC-140964] | – | – | – | – | 20.63 | – | – | – | – | 3.16 | 12.97 | – | – | inhibition at 2 µM [1, 21]: 99.3%; inhibition at 2 µM [1, 22]: 98.8%; inhibition at 2 µM [1, 23]: 97.8%; inhibition at 2 µM [1, 24]: 101%; inhibition at 2 µM [2, 25]: 36.2%; inhibition at 2 µM [2, 26]: 34%; inhibition at 2 µM [2, 27]: 38.6%; inhibition at 2 µM [2, 28]: 28.7%; inhibition at 2 µM [2, 29]: 43.5%
8 | – | – | 5.79 | 5.99 | CC(C)(CNC(=O)[C@H]1CCCCN1)c1nc(-c2ccc(Cl)c(O)c2)c(-c2ccncc2)[nH]1.Cl [TCMDC-141070] | – | – | – | – | 32.01 | – | – | – | – | 51.37 | 52.33 | – | – | HitlevelM ([1]; 2µM, 24h preincubation): 1; inhibition at 2 µM ([1]; Plasmodium falciparum, 2µM, 24h preincubation with gametocytes prior to induction of gametogenesis, average of replicates, read-out: Average inhibition male (%)): 20.5%; inhibition at 2 µM ([1]; Plasmodium falciparum, 2µM, 24h preincubation with gametocytes prior to induction of gametogenesis, replicate R1, read-out: % inhibition male (individual replicates) R1): -8.8%; inhibition at 2 µM ([1]; Plasmodium falciparum, 2µM, 24h preincubation with gametocytes prior to induction of gametogenesis, replicate R2, read-out: % inhibition male (individual replicates) R2): -11.5%; inhibition at 2 µM ([1]; Plasmodium falciparum, 2µM, 24h preincubation with gametocytes prior to induction of gametogenesis, replicate R3, read-out: % inhibition male (individual replicates) R3): 48.5%; inhibition at 2 µM ([1]; Plasmodium falciparum, 2µM, 24h preincubation with gametocytes prior to induction of gametogenesis, replicate R4, read-out: % inhibition male (individual replicates) R4): 54%; HitlevelF ([2]; 2µM, 24h preincubation): 4; inhibition at 2 µM ([2]; Plasmodium falciparum, 2µM, 24h preincubation with gametocytes prior to induction of gametogenesis, average of replicates, read-out: Average inhibition female (%)): 83.6%; inhibition at 2 µM ([2]; Plasmodium falciparum, 2µM, 24h preincubation with gametocytes prior to induction of gametogenesis, replicate R1, read-out: % inhibition female (individual replicates) R1): 71.8%; inhibition at 2 µM ([2]; Plasmodium falciparum, 2µM, 24h preincubation with gametocytes prior to induction of gametogenesis, replicate R2, read-out: % inhibition female (individual replicates) R2): 79.1%; inhibition at 2 µM ([2]; Plasmodium falciparum, 2µM, 24h preincubation with gametocytes prior to induction of gametogenesis, replicate R3, read-out: % inhibition female (individual replicates) R3): 95.8%; inhibition at 2 µM ([2]; Plasmodium falciparum, 2µM, 24h preincubation with gametocytes prior to induction of gametogenesis, replicate R4, read-out: % inhibition female (individual replicates) R4): 87.7%

Row | Structure (SMILES) | pIC50 [1] | pIC50 [2] | pIC50 ([1]; Plasmodium falciparum) | pIC50 ([2]; Plasmodium falciparum) | Average inhibition male (%) [1, 3] [%] | % inhibition male (individual replicates) R1 [1, 4] [%] | % inhibition male (individual replicates) R3 [1, 5] [%] | % inhibition male (individual replicates) R4 [1, 6] [%] | Selectivity Ratio M [1] | Average inhibition female (%) [2, 3] [%] | % inhibition female (individual replicates) R1 [2, 4] [%] | % inhibition female (individual replicates) R3 [2, 5] [%] | % inhibition female (individual replicates) R4 [2, 6] [%] | Selectivity ratio F [2] | Tox50 (HepG2 cells) [µM] | HitlevelM ([1]; 2µM) | HitlevelF ([2]; 2µM) | further results
9 | CC(Cc1ccc(OCCCCOc2ccccc2)cc1)NCCC1CCCN1C (centres unmarked) [TCMDC-140017] | 6.18 | 5.86 | – | – | 99.4 | 96.0 | 99.2 | 102.2 | 2.45 | 62.2 | 37.3 | 46.8 | 81.6 | 1.19 | 1.62 | – | – | –
10 | CN(C)CCCOc1ccc(CN2CCC(c3c[nH]c4ccc(NCC5CCCCC5)cc34)CC2)cc1.O=C(O)C(F)(F)F [TCMDC-140737] | 5.87 | 5.31 | – | – | 93.4 | 100.1 | 96.2 | 94.6 | 6.13 | 62.2 | 56.9 | 56.2 | 81.1 | 1.66 | 8.22 | – | – | –
